Where a name gives a salt, the structure may show the parent alone. Read-outs that look alike come from different tables or passages of the source.
What was measured:
primary rat microglia [1] = test system: primary rat microglia;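 as to Fibrin % cell toxicity: share of dead cells sized under 150 µm2 at 10 µM in fibrin-stimulated microglia HTS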
[2] = test system: fibrin- and LPS-induced microglia activation; test: cells; type: cell-based, rat
[3] = test system: LPS-induced microglia activation; test: Image-based assay of LPS-induced microglia activation (HTS and dose response); type: cell-based, rat
primary rat microglia [4] = test system: primary rat microglia; remark: listed apart in the source;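 as to Fibrin % cell toxicity: share of dead cells sized under 150 µm2 at 10 µM in fibrin-stimulated microglia HTS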
[5] = test system: fibrin-induced microglia activation; test: Image-based assay of fibrin-induced microglia activation (HTS and dose response); type: cell-based, rat; details: for inhibition at 10 µM: Rattus norvegicus, Microglia, read-out: Fibrin % inhibition
[6] = classification by fibrin and LPS inhibition, HTS at 10 μM
[7] = Rattus norvegicus, Microglia, read-out: LPS % inhibition
[8] = quadrant by fibrin and LPS inhibition in HTS of 1907 compounds
[9] = Rattus norvegicus, Microglia, 48 h, primary microglia HTS, LPS stimulation; increased cell size (>800 μm^2) as marker of activation; read-out: LPS % inhibition
[10] = primary microglia HTS, fibrin stimulation, increased cell size (>800 μm^2) as marker of activation
[11] = Rattus norvegicus, Microglia, primary microglia HTS, LPS stimulation, compounds at 10 μM; read-out: LPS % inhibition
[12] = primary microglia HTS, fibrin stimulation, compounds at 10 μM
[13] = classification by fibrin and LPS inhibition in HTS
[14] = Rattus norvegicus, Microglia, 48 h; read-out: LPS % inhibition
[15] = primary microglia HTS, fibrin stimulation, cell size >800 μm2 as marker of activation
[16] = Rattus norvegicus, Microglia, 48 h, read-out: LPS % inhibition
[17] = HTS of 1907 compounds, quadrant by fibrin and LPS inhibition
[18] = primary microglia HTS, 10 μM, fibrin-stimulated, cell size >800 μm^2 as marker of activation

Row | SMILES | Fibrin % cell toxicity (primary rat microglia [1]; rat) | LPS % cell toxicity (primary rat microglia [4]; rat) | Quadrant (FIG. 5b) [2] | inhibition at 10 µM [5] | also measured
1 | COc1ccc([C@@H]2Sc3ccccc3N(CCN(C)C)C(=O)[C@@H]2OC(C)=O)cc1 [Diltiazem Hydrochloride] | 0% | 0% |  |  | Quadrant (FIG. 5b) [2, 6]: Q4; LPS % inhibition ([3]; primary microglia HTS, LPS stimulation, compounds at 10 μM; 10 µM): 15%; Fibrin % inhibition ([5]; primary microglia HTS, fibrin stimulation, compounds at 10 μM, 10 µM): −5%
2 | CN(C)CCC=C1c2ccccc2C=Cc2ccccc21 [Cyclobenzaprine] | 0% | 1% | Q4 | -29% | inhibition at 10 µM [3, 7]: 35%
3 | CC(C)NCC(O)c1cc(O)cc(O)c1 (stereo not shown) [Orciprenaline] | 0% | 0% |  |  | Quadrant (FIG. 5b) [2, 8]: Q4; inhibition at 10 µM [3, 9]: 25%; inhibition at 10 µM [5, 10]: 15%
4 | CCOC(=O)[C@H](CCc1ccccc1)N[C@@H](C)C(=O)N1CCC[C@H]1C(=O)O [Enalapril] | 1% | 1% |  |  | Quadrant (FIG. 5b) [2, 6]: Q4; inhibition at 10 µM [3, 11]: 6%; inhibition at 10 µM [5, 12]: 24%
5 | CC(=O)[C@H]1CC[C@H]2[C@@H]3CCC4=CC(=O)CC[C@]4(C)[C@H]3CC[C@]12C [Progesterone] | 1% | 0% |  |  | Quadrant (FIG. 5b) [2, 13]: Q4; inhibition at 10 µM [3, 14]: 36%; inhibition at 10 µM [5, 15]: 36%
6 | Cl.N=C(N)NCCC[C@H](N)C(=O)O [Arginine Hydrochloride] | 0% | 2% |  |  | Quadrant (FIG. 5b) ([2]; quadrant by fibrin and LPS inhibition, HTS at 10 μM): Q4; inhibition at 10 µM [3, 11]: 42%; inhibition at 10 µM [5, 12]: 9%
7 | O=C(Nc1ccc(C(=O)O)c(O)c1)c1ccccc1 [Benzoylpas] | 4% | 2% | Q2 | 107% | inhibition at 10 µM [3, 16]: 87%
8 | Cc1ccc(-c2nc3ccc(C)cn3c2CC(=O)N(C)C)cc1 [Zolpidem, Zolpidem Tartrate] |  |  | Q4 |  | Fibrin % cell toxicity (primary rat microglia [1]): 0%; LPS % inhibition ([3]; 10 µM): 4%; LPS % cell toxicity (primary rat microglia [4]): 0%; Fibrin % inhibition ([5]; 10 µM): −12%
9 | O=C1Cc2cc(CCN3CCN(c4nsc5ccccc45)CC3)c(Cl)cc2N1 [Ziprasidone Mesylate, Ziprasidone] |  |  |  |  | Fibrin % cell toxicity (primary rat microglia [1]): 1%; Quadrant (FIG. 5b) [2, 17]: Q4; LPS % inhibition ([3]; primary microglia HTS, 10 μM, LPS-stimulated, cell size >800 μm^2 as marker of activation): 35%; LPS % cell toxicity (primary rat microglia [4]): 1%; Fibrin % inhibition [5, 18]: 14%
10 | Nc1nc(N)c2nc(-c3ccccc3)c(N)nc2n1 [Triamterene] | 1% | 0% |  |  | Quadrant (FIG. 5b) [2, 17]: Q4; inhibition at 10 µM ([3]; Rattus norvegicus, Microglia, primary microglia HTS, 10 μM, LPS-stimulated, cell size >800 μm^2 as marker of activation; read-out: LPS % inhibition): 24%; inhibition at 10 µM [5, 18]: 40%
11 | C#Cc1cccc(Nc2ncnc3cc(OCCOC)c(OCCOC)cc23)c1 [Erlotinib] | 1% | 0% |  |  | Quadrant (FIG. 5b) [2, 6]: Q4; inhibition at 10 µM [3, 11]: -8%; inhibition at 10 µM [5, 12]: -52%
12 | C=CCN1CC[C@]23c4c5ccc(O)c4O[C@H]2C(=O)CC[C@@]3(O)[C@H]1C5 [Naloxone Hydrochloride] | 0% | 0% | Q4 |  | LPS % inhibition [3]: 11%; Fibrin % inhibition [5]: −16%
13 | CS(=O)(=O)OCCCCOS(C)(=O)=O [Busulfan] | 0% | 0% |  |  | Quadrant (FIG. 5b) ([2]; primary HTS, 10 μM): Q4; inhibition at 10 µM ([3]; Rattus norvegicus, Microglia, primary HTS, 10 μM, LPS-stimulated primary microglia; read-out: LPS % inhibition): 2%; inhibition at 10 µM ([5]; primary HTS, 10 μM, fibrin-stimulated primary microglia): 1%
14 | Clc1ccccc1C(c1ccccc1)(c1ccccc1)n1ccnc1 [Clotrimazole] | 1% | 0% | Q4 | -13% | inhibition at 10 µM [3, 7]: 13%
15 | OCC(S)CS (stereo not shown) [Dimercaptopropanol, Dimercaprol] |  |  |  |  | Fibrin % cell toxicity (primary rat microglia [1]): 1%; Quadrant (FIG. 5b) [2, 6]: Q4; LPS % inhibition ([3]; primary microglia HTS, LPS stimulation, compounds at 10 μM): 16%; LPS % cell toxicity (primary rat microglia [4]): 0%; Fibrin % inhibition [5, 12]: 49%
16 | CCOc1ccccc1OC(c1ccccc1)C1CNCCO1.CS(=O)(=O)O (stereo not shown) [Reboxetine Mesylate] |  |  |  |  | Fibrin % cell toxicity (primary rat microglia [1]): 1%; Quadrant (FIG. 5b) [2, 13]: Q4; LPS % inhibition ([3]; primary microglia HTS, LPS stimulation, cell size >800 μm2 as marker of activation): 8%; LPS % cell toxicity (primary rat microglia [4]): 0%; Fibrin % inhibition [5, 15]: −33%
17 | O=C1NS(=O)(=O)c2ccccc21 [Saccharin] | 0% | 0% | Q4 | -8% | inhibition at 10 µM [3, 16]: 11%
18 | Cc1cn(-c2cc(NC(=O)c3ccc(C)c(Nc4nccc(-c5cccnc5)n4)c3)cc(C(F)(F)F)c2)cn1 [Nilotinib] | 1% | 1% |  |  | Quadrant (FIG. 5b) [2, 8]: Q4; inhibition at 10 µM [3, 9]: 17%; inhibition at 10 µM [5, 10]: -35%
19 | O=c1[nH]c2ccccc2n1CCCN1CCC(n2c(=O)[nH]c3cc(Cl)ccc32)CC1 [Domperidone] | 1% | 0% | Q4 | 20% | inhibition at 10 µM [3, 7]: 15%
20 | CC(C)(C)NCC(O)c1ccc(O)c(CO)c1 (stereo not shown) [Salbutamol] | 1% | 0% |  |  | Quadrant (FIG. 5b) [2, 13]: Q4; inhibition at 10 µM [3, 14]: 25%; inhibition at 10 µM [5, 15]: 25%
21 | Clc1ccc(COC(Cn2ccnc2)c2ccc(Cl)cc2Cl)cc1 (stereo not shown) [Econazole] | 0% | 0% | Q4 | 0% | inhibition at 10 µM [3, 7]: 18%
22 | Cc1ncc([N+](=O)[O-])n1C [Dimetridazole] | 1% | 1% |  |  | Quadrant (FIG. 5b) [2, 6]: Q4; inhibition at 10 µM [3, 11]: 15%; inhibition at 10 µM [5, 12]: -16%
23 | C[C@H](CCC(=O)O)[C@H]1CC[C@H]2[C@@H]3[C@H](O)C[C@@H]4C[C@H](O)CC[C@]4(C)[C@H]3C[C@H](O)[C@]12C [Cholic Acid] | 0% | 0% | Q4 | -31% | inhibition at 10 µM [3, 7]: -5%
24 | CC(=O)Nc1nnc(S(N)(=O)=O)s1 [Acetazolamide] | 0% | 1% | Q4 | -12% | inhibition at 10 µM [3, 7]: 4%
25 | Nc1cc(C(Cl)=C(Cl)Cl)c(S(N)(=O)=O)cc1S(N)(=O)=O [Clorsulon] | 0% | 0% | Q4 | 0% | inhibition at 10 µM [3, 7]: 17%
26 | CN1CCN(CC(=O)N2c3ccccc3C(=O)Nc3cccnc32)CC1 [Pirenzepine] | 0% | 0% | Q4 | 16% | inhibition at 10 µM [3, 16]: 19%

— patent US20210330611A1, “THERAPY FOR NEUROLOGICAL DISEASES/DISORDERS” (priority 2020, published 2021)
